Assay results from patent US11459586B2, “Methods for increasing efficiency of nuclease-mediated gene editing in stem cells” (President and Fellows of Harvard College, priority 2016, dated 2022).
Like-named read-outs stand apart in the source and are kept apart here. Peptide text beside a SMILES is read from it. * marks the point of attachment. Cbz = O=C(OCc1ccccc1)*; CH2F = FC*

Tests used:
[1] = test system: human iPSC; format: cell-based; conditions: for rescue of hiPSC from cell death (anoikis) after nucleofection: viable cells two days after nucleofection, sgRNA plasmid or pUC19 control
Experimental: FIGS. 10A-F. Effect of Caspase and p38 MAPK inhibitors on survival and gene targeting of human iPSC. FIG. 10A and FIG. 10B. Mouse Thy1 gene targeting scheme. Human iPSC were nucleofected with the mThy1 targeting vector, Cas9 nuclease, and Thy1 sgRNA expressing plasmid or pUC19 empty vector. Nucleofected cells were evenly divided and plated onto plain media (mTeSR1+10 μM Y-27632 ROCK inhibitor), or media supplemented with the indicated chemical inhibitor. For specific caspase inhibitors, the principal caspase they target is noted in parentheses. […] FIG. 10C. Two days after nucleofection, viable cells were counted. Error bars indicate s.e.m. of technical duplicates. Lines mark the count levels for nucleofected cells in plain media with or without sgRNA. FIG. 10D. Five days after transfection, cells were analyzed by flow cytometry for mThy1 and hThy1 expression. The percent of mThy1^+hThy1^− (bottom of each bar) and mThy1^+hThy1^+ (top of each bar) cells of live single cells is indicated. Lines mark the levels for cells in plain media. […] FIG. 10E. FACS plots of human iPSC transfected with the mThy1 targeting vector, Cas9 nuclease, and Thy1 Left and Right sgRNAs. Cells were subsequently cultured for 5 days in plain media±50 μM zVAD and ±10 μM SB203580. FIG. 10F. Human iPSC cultures were single cell FACS sorted into 96-well tissue culture plates containing a MEF feeder layer and hES media supplemented with SMC4 inhibitors±50 μM zVAD for eight days. Ten days after sorting, the number of surviving iPSC colonies was counted (from 190 cells sorted). PGP1 hiPSC lines created using retroviral vectors or non-integrating methods were both tested.
Pluripotency of iPSC cultures was verified by flow cytometry staining using anti-human Tra-1/60 PE (TRA-1-60, BD) and anti-human Oct3/4 eFluor 660 (EM92, eBioscience) with the fixation buffer sold under the trademark BD CYTOFIX™ and permeabilization buffer sold under the trademark PHOSFLOW™ Perm/Wash buffers. Human g-band karyotype analysis was done by Cell Line Genetics. Viable cell counts were measured with the cell analyzer sold under the trademark MUSE® Count & Viability Assay kit (EMD Millipore). Anti-human HLA-A2 APC (BB7.2) and anti-human HLA-BC PE (B1.23.2) were purchased from eBioscience. Human iPSC cultures were treated with 50 ng/ml recombinant interferon gamma (eBioscience) for 2 days prior to HLA staining.
Plasmids were purified using the plasmid DNA purification kit sold under the trademark Qiagen ENDOFREE® Plasmid Maxi kit and nucleofected into iPSC cells using the Lonza 4D-Nucleofector X unit (Buffer P3, Program CB-150). For each 20 μl nucleofection reaction, 0.2-0.5×106 iPSC were transfected with up to 4 μg of plasmid DNA. Post-nucleofection, iPSC were plated onto solubilized basement membrane matrix secreted by Engelbreth-Holm-Swarm (EHS) mouse sarcoma cells sold under the trademark […]®-coated wells containing feeder-free cell culture medium sold under the trademark MTESR1™ media with 10 μM Y-27632 plus other chemical inhibitors when noted. Later experiments included 50 μM zVAD-fmk (Bachem) for 1 day and 10 μM SB203580 (Biovision) for 4-5 days post transfection (see FIGS. 5, 6, 11, and 12). For FIG. 6 (ssODN transfection), 200 ng/ml recombinant B 18R (eBioscience), was also added to the culture for 5 days post transfection.
The following inhibitors were added to the hiPSC culture at the concentrations and time periods indicated in the Examples below. • 1. p53 or Bax inhibitors: cyclic pifithrin α (StemCell Technologies); pifithrin (Tocris); peptide V5, peptide control, iMAC1 and iMAC2 (EMD Millipore); N-acetyl cysteine and 4-hydroxy TEMPO (TEMPOL) (Sigma). • 2.

[2] = test system: human iPSC; experiment: mThy1 gene targeting in hiPSC with chemical inhibitors added after nucleofection (flow cytometry); format: cell-based; conditions: for mThy1 gene targeting efficiencies: PGP1 hiPSC, administered after plasmid nucleofection, indicated concentrations (FIG. 9D)
Experimental: FIGS. 9A-G. Effects of chemical and genetic inhibitors on mThy1 gene targeting in hiPSC. FIG. 9A. Mouse Thy1 gene targeting scheme. Human iPSC were nucleofected with the mThy1 targeting vector system plasmids and analyzed by flow cytometry five days later. The percentages of mThy1^+hThy1^−, mThy1^+hThy1^+, and mThy1^−hThy1^− cells for each sample (gated on live single cells) are graphed. Lines mark the percentage values for the control sample. FIGS. 9B-9D. Human iPSC were nucleofected with: 2 μg mThy1 targeting vector; 0.5 μg Cas9 plasmid; and 1.5 μg of sgRNA plasmids. The sample was divided into multiple wells and cultured in plain media (mTeSR1+10 μM Y-27632 ROCK inhibitor) supplemented with the indicated chemical inhibitor for three days. 20 μM pifithrin α, 200 μM peptide V5 (VPMLK, SEQ ID NO:31), 200 μM peptide control (IPMIK, SEQ ID NO:32), 50 μM TEMPOL, or the indicated concentrations of SCR7 or L755507 were used. FIG. 9B, mThy1^+hThy1^− (bottom portion of each bar in each graph), mThy1^+hThy1^+ (top portion of each bar in each graph). FIG. 9C, mThy1^+hThy1^− (bottom portion of each bar in each graph), mThy1^+hThy1^+ (top portion of each bar in left and center graphs, middle portion of each bar in right graph), and mThy1^−hThy1^− (top portion of each bar in right graph). FIG. 9D, mThy1^+hThy1^− (bottom portion of each bar in each graph), mThy1^+hThy1^+ (center portion of each bar in each graph), and mThy1^−hThy1^− (top portion of each bar in each graph). FIGS. 9E-9F. Human iPSC were nucleofected with: 2 μg mThy1 targeting vector plasmid; 0.5 μg Cas9 plasmid; 1 μg of sgRNA plasmids; and 0.5 μg of plasmid expressing the indicated DNA repair gene or pUC19 control (“Cas9 only”). For FIG. 9E, cultures were treated with 50 μM zVAD and 10 μM SB203580 post transfection. mThy1^+hThy1^− (bottom portion of each bar in each graph), mThy1^+hThy1^+ (top portion of each bar in left and center graphs, middle portion of each bar in right graph), and mThy1^−hThy1^− (top portion of each bar in right graph). FIG. 9F, mThy1^+hThy1^− (bottom portion of each bar in each graph), mThy1^+hThy1^+ (top portion of each bar in left and center graphs, middle portion of each bar in right graph), and mThy1^−hThy1^− (top portion of each bar in right graph). FIG. 9G. Human iPSC were nucleofected with: 2 μg mThy1 targeting vector plasmid; 0.5 μg Cas9 plasmid; and 1.5 μg of sgRNA plasmids. The indicated viral inhibitor genes were cloned into the Cas9 expression vector following an IRES sequence. Cultures were supplemented with 50 μM zVAD post transfection. mThy1^+hThy1^− (bottom portion of each bar in each graph), mThy1^+hThy1^+ (top portion of each bar in left and center graphs, middle portion of each bar in right graph), and mThy1^−hThy1^− (top portion of each bar in right graph).
FIGS. 10A-F. Effect of Caspase and p38 MAPK inhibitors on survival and gene targeting of human iPSC. FIG. 10A and FIG. 10B. Mouse Thy1 gene targeting scheme. Human iPSC were nucleofected with the mThy1 targeting vector, Cas9 nuclease, and Thy1 sgRNA expressing plasmid or pUC19 empty vector. Nucleofected cells were evenly divided and plated onto plain media (mTeSR1+10 μM Y-27632 ROCK inhibitor), or media supplemented with the indicated chemical inhibitor. For specific caspase inhibitors, the principal caspase they target is noted in parentheses. As observed in previous reports, most of the nuclease-mediated cell death occurred between days 1-2 post transfection, and the proportions of mThy1^+ cells remained stable beyond day 5. FIG. 10C. Two days after nucleofection, viable cells were counted. Error bars indicate s.e.m. of technical duplicates. Lines mark the count levels for nucleofected cells in plain media with or without sgRNA. FIG. 10D. Five days after transfection, cells were analyzed by flow cytometry for mThy1 and hThy1 expression. The percent of mThy1^+hThy1^− (bottom of each bar) and mThy1^+hThy1^+ (top of each bar) cells of live single cells is indicated. […]

[3] = 10 μM SB203580 added to hiPSC media after nucleofection

With `COC(=O)CC[C@H](NC(=O)[C@H](C)NC(=O)OCc1ccccc1)C(=O)N[C@H](C(=O)N[C@@H](CC(=O)OC)C(=O)CF)C(C)C` [zAEVD-fmk] (Cbz-AE(OMe)VD(OMe)-CH2F) the “rescue of hiPSC from cell death (anoikis) after nucleofection” value (“rescue of hiPSC from cell death” below) [1] was “prevented anoikis”.

For `CC1(C)CC(O)CC(C)(C)N1[O]` [TEMPOL, 4-hydroxy TEMPO], the “mThy1 gene targeting in hiPSC” value ([2]; 50 μM TEMPOL in media for three days after nucleofection) was “no effect”.

For `C[S+]([O-])c1ccc(-c2nc(-c3ccncc3)c(-c3ccc(F)cc3)[nH]2)cc1` (stereo not shown) [SB203580], the cell survival [1, 3] was “did not affect cell survival” and the gene targeting efficiency [2, 3] was “did enhance gene targeting efficiency”.

For `COC(=O)CC[C@H](NC(=O)[C@H](CC(C)C)NC(=O)OCc1ccccc1)C(=O)N[C@@H](Cc1cnc[nH]1)C(=O)N[C@@H](CC(=O)OC)C(=O)CF` [zLEHD-fmk] (Cbz-LE(OMe)HD(OMe)-CH2F), the “toxicity to hiPSC” value ([1]; after nucleofection, higher concentration than 25 μM (FIG. 10C)) was “very toxic” and the “toxicity to hiPSC” value ([1]; lower concentration, 25 μM) was “did not show as much”.

In the case of `O=c1[nH]c(=S)[nH]c(N=Cc2ccccc2)c1N=Cc1ccccc1` [SCR7], the “mThy1 gene targeting efficiencies” value [2] is reported as “neither the DNA ligase IV inhibitor SCR7 (Maruyama et al., 2015) nor the β3-adrenergic receptor agonist L755507 (Yu et al., 2015) improved mThy1 gene targeting efficiencies”.

With VPMLK (peptide V5) the “mThy1 gene targeting in hiPSC” value ([2]; 200 μM peptide V5 in media for three days after nucleofection) was “only a very slight improvement in gene targeting”.

In the case of `Cc1ccc(C(=O)Cn2c3c(sc2=N)CCCC3)cc1` [Pifithrin α], the “mThy1 gene targeting in hiPSC” value ([2]; 20 μM pifithrin α in media for three days after nucleofection) is reported as “did not enhance hiPSC gene targeting”.

For `COC(=O)CC[C@H](NC(=O)[C@H](CC(=O)OC)NC(=O)OCc1ccccc1)C(=O)N[C@H](C(=O)N[C@@H](CC(=O)OC)C(=O)CF)C(C)C` [zDEVD-fmk], the anoikis rescue ([1]; lower concentration, 25 μM) was “did not show as much anoikis rescue” and the “rescue of hiPSC from cell death” value [1] was “prevented anoikis”.

With `COC(=O)C[C@H](NC(=O)[C@H](C)NC(=O)[C@@H](NC(=O)OCc1ccccc1)C(C)C)C(=O)CF` [zVAD(OMe)-fmk] (Cbz-Val-Ala-Asp(OMe)-CH2F) the “rescue of hiPSC from cell death” value [1] was “rescued cells transfected with an sgRNA, and also those transfected with the pUC19 control”.

`CCCCCCNC(=O)Nc1ccc(S(=O)(=O)Nc2ccc(CCNC[C@H](O)COc3ccc(O)cc3)cc2)cc1` [L755507] was tested, and the “mThy1 gene targeting efficiencies” value [2] was “neither the DNA ligase IV inhibitor SCR7 (Maruyama et al., 2015) nor the β3-adrenergic receptor agonist L755507 (Yu et al., 2015) improved mThy1 gene targeting efficiencies”.
